These results are taken from patent publication US20230174530A1, “N-(PHENYLAMINOCARBONYL) TETRAHYDRO-ISOQUINOLINES AND RELATED COMPOUNDS AS MODULATORS OF GPR65” (PATHIOS THERAPEUTICS LIMITED, priority 2020, published 2023).

The structures appear in SMILES notation.

One may read the IC50 as the concentration that gives 50% inhibition.

The assay concerns the target T1, human recombinant GPR65 (Homo sapiens, UniProt Q8IYL9).
T1 construct: host or cells: 1321N1 human astrocytoma cells (1321N1-hrGPR65)
Put plainly: Human GPR65 cAMP HTRF antagonist assay. In kind it is cell-based. Conditions: 1321N1-hrGPR65 cells stimulated at assay pH 7.2; suppression of cAMP rise; read-out: hGPR65 IC50. The procedure:
Human GPR65 Cyclic Adenosine Monophosphate (cAMP) Homogeneous Time Resolved Fluorescence (HTRF) Antagonist Assay Procedure
IC50 data was obtained by the following procedure:
1321N1 human astrocytoma cells stably expressing human recombinant GPR65 (1321N1-hrGPR65 cells, EuroscreenFast) were cultured according to the vendor's instructions.
Compounds were tested for their ability to antagonise GPR65, through measuring the concentration of cytoplasmic cAMP following treatment of the cells at a pH of 7.2 to activate GPR65 signalling and addition of the compound to be tested. The extent to which the expected rise in cAMP concentration upon GPR65 activation was suppressed by the added compound is indicative of its potency. The assay was carried out according to EuroscreenFast assay methodology as follows.
On the day of the assay, test compounds were added to 384-well, low volume, white microtiter plates by acoustic dispensing. KRH buffer (5 mM KCl, 1.25 mM MgSO4, 124 mM NaCl, 25 mM HEPES, 13.3 mM Glucose, 1.25 mM KH2PO4 and 1.45 mM CaCl2) was adjusted to pH 6.5, pH 7.6 and pH 8.4 by adding NaOH. 1321N1-hGPR65 cells were rapidly thawed and diluted in KRH, pH 7.6 prior to centrifugation at 300×g for 5 min and resuspension in assay buffer (KRH, pH 7.6, supplemented with 1 mM 3-isobutyl-1-methylxanthine (IBMX) and 200 μM ethylenediaminetetraacetic acid (EDTA)). Cells were added to assay plates at a density of 2,000 cells per well in a volume of 5 μl. Assay plates were briefly centrifuged at 100×g and then incubated at room temperature for 30 min. Cells were stimulated by the addition of 5 μL KRH, pH 6.5, to achieve an assay pH of 7.2, while control wells received 5 μl KRH, pH 8.4 to achieve an assay pH of 7.9. Assay plates were briefly centrifuged at 100×g and then incubated at room temperature for 30 min.
Accumulation of cAMP was detected by cAMP HTRF kit (Cisbio). d2-labeled cAMP and cryptate-labeled anti-cAMP antibody in Lysis and Detection Buffer (Cisbio) were added to assay plates, and the plates were incubated at room temperature for 1 h. HTRF measurements were performed using a Pherastar FSX instrument. Acceptor and donor emission signals were measured at 665 nm and 620 nm, respectively, and HTRF ratios were calculated as signal665 nm/signal620 nm×10^4. Data were normalised to high and low control values and fitted with 4-parameter logistic regression to determine hGPR65 IC50 values for the test compounds, which are shown in Table 1.
For orientation: TR-FRET usually uses a lanthanide donor and a delayed reading to cut background.

T1 sequence (Q8IYL9 whole entry): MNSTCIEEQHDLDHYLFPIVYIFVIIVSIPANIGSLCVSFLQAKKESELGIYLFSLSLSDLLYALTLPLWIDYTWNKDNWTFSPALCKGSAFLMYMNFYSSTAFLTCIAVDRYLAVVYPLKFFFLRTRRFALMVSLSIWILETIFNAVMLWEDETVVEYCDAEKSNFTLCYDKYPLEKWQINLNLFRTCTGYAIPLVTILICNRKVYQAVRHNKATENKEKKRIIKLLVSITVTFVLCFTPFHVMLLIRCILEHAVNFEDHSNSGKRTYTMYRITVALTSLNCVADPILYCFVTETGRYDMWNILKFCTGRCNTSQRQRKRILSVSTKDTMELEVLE

On to `Cc1ccc2c(c1)CN(C(=O)Nc1ccc(C(F)(F)F)c(Cl)c1)CC2` [Compound 35, N-(3-Chloro-4-(trifluoromethyl)phenyl)-7-methyl-3,4-dihydroisoquinoline-2(1H)-carboxamide], for which the IC50 was 500 to 5000 nM. With `O=C(Nc1ccc(C(F)(F)F)c(Cl)c1)N1CCc2c(F)cccc2C1` [Compound 36, N-(3-Chloro-4-(trifluoromethyl)phenyl)-5-fluoro-3,4-dihydroisoquinoline-2(1H)-carboxamide], the half-inhibitory concentration (IC50) is less than 500 nM.

Turning to `N#Cc1ccc2c(c1)CCN(C(=O)Nc1ccc(Cl)c(Cl)c1)C2` [Compound 37, 6-Cyano-N-(3,4-dichlorophenyl)-3,4-dihydroisoquinoline-2(1H)-carboxamide], the IC50 is less than 500 nM. The value for `N#Cc1ccc2c(c1)CCN(C(=O)Nc1ccc(Cl)c(C(F)(F)F)c1)C2` [Compound 38, N-(4-Chloro-3-(trifluoromethyl)phenyl)-6-cyano-3,4-dihydroisoquinoline-2(1H)-carboxamide] was 500 to 5000 nM; that for `N#Cc1ccc2c(c1)CCN(C(=O)Nc1ccc(C(F)(F)F)c(Cl)c1)C2` [Compound 39, N-(3-Chloro-4-(trifluoromethyl)phenyl)-6-cyano-3,4-dihydroisoquinoline-2(1H)-carboxamide] was less than 500 nM. The value for `O=C(Nc1ccc(Cl)c(Cl)c1)N1CCc2cc(F)ccc2C1` [Compound 42, N-(3,4-Dichlorophenyl)-6-fluoro-3,4-dihydroisoquinoline-2(1H)-carboxamide] was less than 500 nM; that for `O=C(Nc1ccc(Cl)c(C(F)(F)F)c1)N1CCc2cc(F)ccc2C1` [Compound 43, N-(4-Chloro-3-(trifluoromethyl)phenyl)-6-fluoro-3,4-dihydroisoquinoline-2(1H)-carboxamide] was less than 500 nM. The value for `O=C(Nc1ccc(C(F)(F)F)c(Cl)c1)N1CCc2cc(F)ccc2C1` [Compound 44, N-(3-Chloro-4-(trifluoromethyl)phenyl)-6-fluoro-3,4-dihydroisoquinoline-2(1H)-carboxamide] was less than 500 nM. Regarding `O=C(Nc1ccc(Cl)c(Cl)c1)N1CCc2cccc(F)c2C1` [Compound 45, N-(3,4-Dichlorophenyl)-8-fluoro-3,4-dihydroisoquinoline-2(1H)-carboxamide], the IC50 lay in the range of 500 to 5000 nM. The value for `O=C(Nc1ccc(Cl)c(C(F)(F)F)c1)N1CCc2cccc(F)c2C1` [Compound 46, N-(4-Chloro-3-(trifluoromethyl)phenyl)-8-fluoro-3,4-dihydroisoquinoline-2(1H)-carboxamide] was more than 5000 nM; that for `O=C(Nc1ccc(C(F)(F)F)c(Cl)c1)N1CCc2cccc(F)c2C1` [Compound 47, N-(3-Chloro-4-(trifluoromethyl)phenyl)-8-fluoro-3,4-dihydroisoquinoline-2(1H)-carboxamide] was 500 to 5000 nM; that for `N#Cc1ccc2c(c1)CN(C(=O)Nc1ccc(Cl)c(Cl)c1)CC2` [Compound 49, 7-Cyano-N-(3,4-dichlorophenyl)-3,4-dihydroisoquinoline-2(1H)-carboxamide] was 500 to 5000 nM.

As to `N#Cc1ccc2c(c1)CN(C(=O)Nc1ccc(Cl)c(C(F)(F)F)c1)CC2` [Compound 50, N-(4-Chloro-3-(trifluoromethyl)phenyl)-7-cyano-3,4-dihydroisoquinoline-2(1H)-carboxamide], the concentration for half-maximal inhibition (IC50) was 500 to 5000 nM.

For `N#Cc1ccc2c(c1)CN(C(=O)Nc1ccc(C(F)(F)F)c(Cl)c1)CC2` [Compound 51, N-(3-Chloro-4-(trifluoromethyl)phenyl)-7-cyano-3,4-dihydroisoquinoline-2(1H)-carboxamide], the concentration for half-maximal inhibition (IC50) was 500 to 5000 nM. The value for `O=C(Nc1ccc(Cl)c(Cl)c1)N1CCc2cc(Cl)ccc2C1` [Compound 52, 6-Chloro-N-(3,4-dichlorophenyl)-3,4-dihydroisoquinoline-2(1H)-carboxamide] was less than 500 nM; that for `O=C(Nc1ccc(Cl)c(C(F)(F)F)c1)N1CCc2cc(Cl)ccc2C1` [Compound 53, 6-Chloro-N-(4-chloro-3-(trifluoromethyl)phenyl)-3,4-dihydroisoquinoline-2(1H)-carboxamide] was less than 500 nM. Turning to `O=C(Nc1ccc(C(F)(F)F)c(Cl)c1)N1CCc2cc(Cl)ccc2C1` [Compound 54, 6-Chloro-N-(3-chloro-4-(trifluoromethyl)phenyl)-3,4-dihydroisoquinoline-2(1H)-carboxamide], the half-inhibitory concentration (IC50) was less than 500 nM. The value for `O=C(Nc1ccc(Cl)c(Cl)c1)N1CCc2c(Cl)cccc2C1` [Compound 55, 5-Chloro-N-(3,4-dichlorophenyl)-3,4-dihydroisoquinoline-2(1H)-carboxamide] was 500 to 5000 nM. Consider `O=C(Nc1ccc(Cl)c(C(F)(F)F)c1)N1CCc2c(Cl)cccc2C1` [Compound 56, 5-Chloro-N-(4-chloro-3-(trifluoromethyl)phenyl)-3,4-dihydroisoquinoline-2(1H)-carboxamide], for which the IC50 is more than 5000 nM. The value for `O=C(Nc1ccc(C(F)(F)F)c(Cl)c1)N1CCc2c(Cl)cccc2C1` [Compound 57, 5-Chloro-N-(3-chloro-4-(trifluoromethyl)phenyl)-3,4-dihydroisoquinoline-2(1H)-carboxamide] was 500 to 5000 nM; that for `Cc1cccc2c1CCN(C(=O)Nc1ccc(Cl)c(Cl)c1)C2` [Compound 58, N-(3,4-Dichlorophenyl)-5-methyl-3,4-dihydroisoquinoline-2(1H)-carboxamide] was 500 to 5000 nM. The value for `Cc1cccc2c1CCN(C(=O)Nc1ccc(Cl)c(C(F)(F)F)c1)C2` [Compound 59, N-(4-Chloro-3-(trifluoromethyl)phenyl)-5-methyl-3,4-dihydroisoquinoline-2(1H)-carboxamide] was 500 to 5000 nM. The value for `Cc1cccc2c1CCN(C(=O)Nc1ccc(C(F)(F)F)c(Cl)c1)C2` [Compound 60, N-(3-Chloro-4-(trifluoromethyl)phenyl)-5-methyl-3,4-dihydroisoquinoline-2(1H)-carboxamide] was 500 to 5000 nM; that for `COc1ccc2c(c1)CN(C(=O)Nc1ccc(Cl)c(Cl)c1)CC2` [Compound 61, N-(3,4-Dichlorophenyl)-7-methoxy-3,4-dihydroisoquinoline-2(1H)-carboxamide] was 500 to 5000 nM; that for `COc1ccc2c(c1)CN(C(=O)Nc1ccc(Cl)c(C(F)(F)F)c1)CC2` [Compound 62, N-(4-Chloro-3-(trifluoromethyl)phenyl)-7-methoxy-3,4-dihydroisoquinoline-2(1H)-carboxamide] was more than 5000 nM. In the case of `COc1ccc2c(c1)CN(C(=O)Nc1ccc(C(F)(F)F)c(Cl)c1)CC2` [Compound 63, N-(3-Chloro-4-(trifluoromethyl)phenyl)-7-methoxy-3,4-dihydroisoquinoline-2(1H)-carboxamide], the IC50 lay within 500 to 5000 nM. Take `COc1cccc2c1CN(C(=O)Nc1ccc(Cl)c(Cl)c1)CC2` [Compound 64, N-(3,4-Dichlorophenyl)-8-methoxy-3,4-dihydroisoquinoline-2(1H)-carboxamide]: the IC50 is 500 to 5000 nM. The value for `COc1ccc2c(c1)CCN(C(=O)Nc1ccc(Cl)c(Cl)c1)C2` [Compound 65, N-(3,4-Dichlorophenyl)-6-methoxy-3,4-dihydroisoquinoline-2(1H)-carboxamide] was more than 5000 nM; that for `COc1ccc2c(c1)CCN(C(=O)Nc1ccc(Cl)c(C(F)(F)F)c1)C2` [Compound 66, N-(4-Chloro-3-(trifluoromethyl)phenyl)-6-methoxy-3,4-dihydroisoquinoline-2(1H)-carboxamide] was 500 to 5000 nM; that for `COc1ccc2c(c1)CCN(C(=O)Nc1ccc(C(F)(F)F)c(Cl)c1)C2` [Compound 67, N-(3-Chloro-4-(trifluoromethyl)phenyl)-6-methoxy-3,4-dihydroisoquinoline-2(1H)-carboxamide] was 500 to 5000 nM. Take `O=C(Nc1ccc(C(F)(F)F)c(Cl)c1)N1CCc2c(cccc2C(F)(F)F)C1` [Compound 70, N-(3-Chloro-4-(trifluoromethyl)phenyl)-5-(trifluoromethyl)-3,4-dihydroisoquinoline-2(1H)-carboxamide]: the concentration for half-maximal inhibition (IC50) is more than 5000 nM.

In the case of `O=C(Nc1ccc(C(F)(F)F)c(Cl)c1)N1CCc2ccc(C(F)(F)F)cc2C1` [Compound 71, N-(3-Chloro-4-(trifluoromethyl)phenyl)-7-(trifluoromethyl)-3,4-dihydroisoquinoline-2(1H)-carboxamide], the IC50 was in the range of 500 to 5000 nM.
